Test results from BindingDB's records for doi:10.1021/jm970519e (Smithkline Beecham Pharmaceuticals, 1998).

Columns and labels:
[1] = target: 5-hydroxytryptamine receptor 2A (Homo sapiens, UniProt P28223)
[2] = target: 5-hydroxytryptamine receptor 1E (Homo sapiens, UniProt P28566)
[3] = target: T1, 5-hydroxytryptamine receptor 2C (Homo sapiens, UniProt P28335)
T1 sequence (P28335 whole entry): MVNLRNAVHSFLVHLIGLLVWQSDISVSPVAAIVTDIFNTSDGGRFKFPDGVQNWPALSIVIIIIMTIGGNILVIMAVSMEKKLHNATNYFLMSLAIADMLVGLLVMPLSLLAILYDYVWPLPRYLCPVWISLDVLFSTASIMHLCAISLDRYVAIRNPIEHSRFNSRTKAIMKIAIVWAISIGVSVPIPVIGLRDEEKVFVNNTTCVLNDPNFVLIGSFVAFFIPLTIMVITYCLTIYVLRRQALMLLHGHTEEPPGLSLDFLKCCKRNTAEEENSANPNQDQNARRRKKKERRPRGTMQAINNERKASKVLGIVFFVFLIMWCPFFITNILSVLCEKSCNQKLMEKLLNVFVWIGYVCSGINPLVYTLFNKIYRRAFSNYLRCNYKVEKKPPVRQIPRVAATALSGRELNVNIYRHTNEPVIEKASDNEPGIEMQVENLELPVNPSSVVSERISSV

[4] = target: T2, Alpha-1B adrenergic receptor (Homo sapiens, UniProt P35368)
T2 sequence (P35368 whole entry): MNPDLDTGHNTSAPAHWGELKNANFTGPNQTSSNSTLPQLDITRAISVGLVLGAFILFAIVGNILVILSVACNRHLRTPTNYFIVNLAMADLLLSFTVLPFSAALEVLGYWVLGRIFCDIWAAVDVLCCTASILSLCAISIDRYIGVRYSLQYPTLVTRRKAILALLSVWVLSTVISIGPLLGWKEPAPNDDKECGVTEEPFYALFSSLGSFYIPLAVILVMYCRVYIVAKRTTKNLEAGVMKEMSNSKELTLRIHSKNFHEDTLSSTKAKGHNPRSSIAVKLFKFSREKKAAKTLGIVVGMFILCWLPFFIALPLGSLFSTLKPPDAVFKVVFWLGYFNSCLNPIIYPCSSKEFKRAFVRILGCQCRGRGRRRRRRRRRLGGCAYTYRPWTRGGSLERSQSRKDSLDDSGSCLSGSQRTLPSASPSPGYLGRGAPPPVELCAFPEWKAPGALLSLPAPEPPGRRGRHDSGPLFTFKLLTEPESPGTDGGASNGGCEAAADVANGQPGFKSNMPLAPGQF

[5] = target: 5-hydroxytryptamine receptor 6 (Homo sapiens, UniProt P50406)
Sequence of 5-hydroxytryptamine receptor 6 (P50406 whole entry): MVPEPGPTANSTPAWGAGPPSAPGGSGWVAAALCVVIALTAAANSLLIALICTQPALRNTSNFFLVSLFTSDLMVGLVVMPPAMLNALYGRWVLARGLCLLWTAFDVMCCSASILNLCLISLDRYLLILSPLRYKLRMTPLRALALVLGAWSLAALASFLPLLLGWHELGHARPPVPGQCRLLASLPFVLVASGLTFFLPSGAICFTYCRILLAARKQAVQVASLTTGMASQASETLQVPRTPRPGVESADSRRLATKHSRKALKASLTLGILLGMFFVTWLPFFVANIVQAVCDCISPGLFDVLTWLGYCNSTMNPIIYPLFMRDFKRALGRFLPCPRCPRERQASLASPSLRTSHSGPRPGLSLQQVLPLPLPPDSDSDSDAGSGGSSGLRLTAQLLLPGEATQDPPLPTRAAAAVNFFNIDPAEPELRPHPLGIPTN

Measured: Ki

Sequence of 5-hydroxytryptamine receptor 1E (P28566 whole entry): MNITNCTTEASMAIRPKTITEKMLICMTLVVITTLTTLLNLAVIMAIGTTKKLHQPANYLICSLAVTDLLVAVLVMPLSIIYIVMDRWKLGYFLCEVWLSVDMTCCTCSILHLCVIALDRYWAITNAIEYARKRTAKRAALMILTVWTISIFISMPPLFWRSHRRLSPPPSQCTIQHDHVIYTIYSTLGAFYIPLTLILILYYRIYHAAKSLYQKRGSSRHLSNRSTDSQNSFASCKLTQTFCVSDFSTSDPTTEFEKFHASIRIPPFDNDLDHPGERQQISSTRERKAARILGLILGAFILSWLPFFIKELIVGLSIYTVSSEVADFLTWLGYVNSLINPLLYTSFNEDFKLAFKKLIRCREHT
Sequence of 5-hydroxytryptamine receptor 2A (P28223 whole entry): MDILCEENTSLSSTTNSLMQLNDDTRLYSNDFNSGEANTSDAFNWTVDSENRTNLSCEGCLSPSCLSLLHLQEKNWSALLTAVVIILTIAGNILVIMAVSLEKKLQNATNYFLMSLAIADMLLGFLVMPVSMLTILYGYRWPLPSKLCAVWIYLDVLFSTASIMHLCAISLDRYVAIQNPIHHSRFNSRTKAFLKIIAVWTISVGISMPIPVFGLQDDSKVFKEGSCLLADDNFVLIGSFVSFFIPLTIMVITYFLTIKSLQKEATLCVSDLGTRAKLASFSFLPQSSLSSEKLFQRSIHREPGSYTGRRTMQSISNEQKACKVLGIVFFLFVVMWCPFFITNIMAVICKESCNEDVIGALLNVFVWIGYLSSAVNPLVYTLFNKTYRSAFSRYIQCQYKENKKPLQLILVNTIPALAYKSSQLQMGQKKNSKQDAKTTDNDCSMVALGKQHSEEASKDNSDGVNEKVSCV

Cc1cccc(S(=O)(=O)N(C)[C@H](C)CCN2CCC(C)CC2)c1 [SB-258719]
> 10 µM: all assays above
